{"source": "patent US20020064770A1", "about": "“Binding compounds and methods for identifying binding compounds” (priority 2000, published 2002)", "molecules": {"B1": {"name": "MIP-1β: natural CCR5 ligand, used as [125I] radioligand (protein, UniProt P13236 24-92, looked up)", "C-C motif chemokine 4": "APMGSDPPTACCFSYTARKLPRNFVVDYYETSSLCSQPAVVFQTKRSKQVCADPSESWVQEYVYDLELN", "modifications": "ends and bridges not checked; also: [125I] radiolabel"}}, "key": {"[1]": {"test_system": "T-cell line-tropic HIV-1", "conditions": "cited from earlier work"}, "[2]": {"test_system": "R5 HIV-1", "conditions": "clinical isolates and a laboratory strain; peripheral blood mononuclear cells; cited from earlier work"}, "[3]": {"biological_target": "T1, CCR5 (Homo sapiens, UniProt P51681)", "T1 sequence (P51681 whole entry)": "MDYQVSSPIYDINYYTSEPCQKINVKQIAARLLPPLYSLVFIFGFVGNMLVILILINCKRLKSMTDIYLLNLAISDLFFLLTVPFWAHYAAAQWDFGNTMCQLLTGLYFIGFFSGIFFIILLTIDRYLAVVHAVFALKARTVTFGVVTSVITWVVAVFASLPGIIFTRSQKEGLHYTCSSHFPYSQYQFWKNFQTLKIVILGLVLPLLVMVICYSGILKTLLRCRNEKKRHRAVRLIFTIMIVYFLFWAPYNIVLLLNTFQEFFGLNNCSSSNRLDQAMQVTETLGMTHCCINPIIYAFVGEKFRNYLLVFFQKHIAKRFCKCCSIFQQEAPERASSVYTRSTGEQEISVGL", "conditions": "CCR5-expressing Chinese hamster ovary cells; cited from earlier work"}, "[4]": {"biological_target": "T1, CCR5", "design": "endogenous in cells; host or cells: monocytes", "conditions": "cited from earlier work"}, "[5]": {"test_system": "M-tropic HIV-1 strains", "conditions": "cited from earlier work"}, "[6]": {"biological_target": "T1, CCR5", "design": "endogenous in cells; host or cells: monocytes", "conditions": "monocytes; cited from earlier work"}, "[7]": {"test_system": "CCR5", "assay": "Binding affinity of identified peptide ligands for CCR5 (displacement of [125I]-MIP-1β)", "design": "species or system human", "source_text": "In order to determine those ligands that had the highest affinity to the target receptor, generally, over 200 peptide libraries were screened to determine each library's respective inhibition binding. […] In additional aspects of the invention, once preferred amino acid residues are identified due to high preference values by CCR5 at the degenerate positions of the library, specific peptides are synthesized by the same methods as employed for library synthesis. In one embodiment of the invention, a high preference value is greater than 1. The value is determined by subtracting the control value from the sample value and dividing by the reference value. In a preferred embodiment of the invention, the preference value is greater than 1.2. In a highly preferred embodiment of the invention, the preference value is greater than 2. After synthesis of the identified peptide sequence, the peptide is purified by, for example, High Performance Liquid Chromatography (“HPLC”) and compositions are confirmed by Matrix-Assisted Laser Desorption Ionization-Time of Flight Mass Spectrometer (“MALDI-TOF MS”) and Edman Sequencing. Generally, relative affinities may be measured by modifying the radiolabel binding assay used in receptor purification.\nRelative affinities were measured by modifying the radiolabel binding assay used in receptor purification."}, "[8]": {"biological_target": "PDZ", "conditions": "binding domain PDZ; cited from earlier work"}, "[9]": {"biological_target": "T2, SH2 (src) (Homo sapiens, UniProt P12931)", "T2 construct": "SH2 (src)", "conditions": "binding domain SH2 (src); cited from earlier work"}, "[10]": {"biological_target": "14-3-3", "conditions": "binding domain 14-3-3; cited from earlier work"}, "[11]": {"biological_target": "CCR5", "conditions": "value obtained by Receptor Biology; applicant's membrane preparations comparable; read-out: Kd for MIP1-β binding; cited from earlier work"}}, "data": [{"molecule": "Cc1ccc(-c2ccc3c(c2)C=C(C(=O)Nc2ccc(C[N+](C)(C)C4CCOCC4)cc2)CCC3)cc1.[Cl-]", "note": "[TAK-779]", "values": [{"measurement": "activity against T-cell line-tropic HIV-1", "setting": "[1]", "value": "inactive"}, {"measurement": "concentration inhibiting replication of R5 HIV-1", "setting": "[2]", "value": "1.6 to 3.7", "unit": "nM"}, {"measurement": "antagonism of RANTES binding to CCR5", "setting": "[3]", "value": "antagonizes"}, {"measurement": "concentration blocking CCR5-mediated Ca2+ signaling", "setting": "[4]", "value": "nanomolar"}]}, {"molecule": "Aminooxypentane (AOP)-RANTES[2-68]", "values": [{"measurement": "inhibition of infection of macrophages", "setting": "[5]", "value": "potently inhibits"}, {"measurement": "antagonist potency on CCR5 function", "setting": "[6]", "value": "subnanomolar"}]}, {"molecule": "K-K-K-A-R-S-L-I-W-R-P-A-K-A-K-K-K (KKKARSLIWRPAKAKKK)", "values": [{"measurement": "affinity and action on CCR5", "setting": "[7]", "value": "enhanced affinity and action"}]}, {"molecule": "KKKKETDV", "values": [{"measurement": "Kd", "setting": "[8]", "value": 42, "unit": "nM"}]}, {"molecule": "M-A-R-S-L-I-W-R-P-A-K-A-K-K-A (MARSLIWRPAKAKKA)", "values": [{"measurement": "affinity and action on CCR5", "setting": "[7]", "value": "enhanced affinity and action"}]}, {"molecule": "PYBEIY", "values": [{"measurement": "Kd", "setting": "[9]", "value": 100, "unit": "nM"}]}, {"molecule": "RLSHpSLP", "values": [{"measurement": "Kd", "setting": "[10]", "value": 55.7, "unit": "nM"}]}, {"molecule": "cyclo(M-Y-A-T-R-W-K-N) (MYATRWKN; cyclic)", "values": [{"measurement": "affinity and action on CCR5", "setting": "[7]", "value": "enhanced affinity and action"}]}, {"molecule": "B1", "values": [{"measurement": "Kd", "setting": "[11]", "value": "< 1", "unit": "nM"}]}]}
